Assay results from patent US20240124528A1, “ANTAGONIST OF INTERLEUKIN-17B RECEPTOR (IL-17RB) AND USE THEREOF” (Academia Sinica, priority 2020, published 2024).

Legend:
[1] = test system: DCs derived from mouse bone marrow; format: cell-based
Method: (FIG. 24A) Flow chart describing the experimental design for testing the effects of anti-IL-17RB antibody and loop peptide on IL-17E-induced expression of IL-4 and IL-13 in peripheral blood mononuclear cells (PBMCs). PBMCs were purified by Ficoll-paque and used for the following experiments. (FIG. 24B to FIG. 24E) IL-4 and IL-13 expression induced by IL-17B or IL-17E in the PBMCs was determined by RT-qPCR after mIgG or anti-IL-17RB antibody pretreatment (FIG. 24B and FIG. 24C) and control or loop peptide pretreatment (FIG. 24D and FIG. 24E), respectively. (FIG. 24F and FIG. 24G) The DCs derived from mouse bone marrow were treated with the control or loop peptides, separately. (FIG. 24F) Flow cytometry analysis using anti-CD80, CD86 and MHC-II antibodies was performed to determine the activity of the DCs after incubation with the control or loop peptides for 48 hrs. (FIG. 24G) The activities of DCs were quantified by gating the area of the CD80, CD86 and MHC-II-positive cells (n=3). Data are mean±s.d.

[2] = test system: transgenic pancreatic cancer EKP mice; test: Spontaneous pancreatic cancer model, EKP mice plus cerulein; format: in vivo, mouse; conditions: for recruitment of MDSC and M2 macrophage: pancreatic tissues, flow cytometry
Source text: FIGS. 7A to 7J include charts showing that disruption of the interaction between IL-17RB and MLK4 by the loop peptide blocks oncogenic progression. (FIG. 7A) Peptides TAT48-57 (Control) (SEQ ID NO: 21) and TAT-IL-17RB403-416 (Loop) (SEQ ID NO: 30) used for the following experiments. (FIG. 7B) Immunoblotting analysis of IL-17RB binding to MLK4 with Loop peptide treatment. 293T cells expressing Flag-MLK4 and HA-IL-17RB were pretreated with the control and loop peptides with different dose (0, 0.1, 1, 10, 50, 100 ng/ml) for 30 mins, and then added rIL-17B for 30 mins. The cell lysates were reciprocally co-immunoprecipitated with anti-Flag and anti-HA and blotted with the indicated antibodies or directly immunoblotted with the indicated antibodies as the input controls. (FIG. 7C to FIG. 7F) CFPAC1cells were pretreated with the peptides for 30 mins and then added rIL-17B for 30 mins. The cell lysates were immunoblotted with the indicated antibodies or immunoprecipitated with anti-IL-17RB or control IgG and blotted with the indicated antibodies (FIG. 7C). CFPAC1 cells were pretreated with TAT48-57 or TAT-IL-17RB403-416 (50 ng/ml) 30 mins and then added rIL-17B for two hrs. CCL20 and TFF/mRNA expression of these cells were measured by RT-qPCR (n=3) (FIG. 7D), the same cells were for invasion assay (n=4) (FIG. 7E) and SACF assay (n=4) (FIG. 7F). (FIG. 7G) The scheme of the treatment of transgenic pancreatic cancer EKP mice (LSL-Kras^+/G12D; p53^+/−; Ela-Cre^ERT; plus cerulein) with the Loop peptides. (FIG. 7H) IHC images of pancreases stained with anti-P-Y447 antibody. Scale bars: 50 μm. The pancreas tissues were from EKP mice after treated with the control or loop peptides at Day 42. The Kras^+/+ mice (Kras^+/+; p53^+/−; Ela-Cre^ERT; plus cerulein) were used as the non-cancerous control. Boxes indicate the enlarged areas. (FIG. 7I) The experimental EKP mice (n=7 for each group) were euthanized at Day 56, and the metastatic tumor nodules in the lungs were counted. (FIG. 7J) Kaplan-Meier survival curve plot of the lifespans of the experimental EKP mice (n=7 for each group). Log-rank test was used.
FIGS. 20A to 20D include charts showing that treatment of TAT-IL-17RB403-416 peptide reduces the recruitment of MDSC and M2 macrophage. (FIG. 20A) Pancreatic tissues of EKP mice (LSL-Kras+/G12D; p53+/−; Ela-Cre^ERT; plus cerulein) (n=7 for each group) treated with TAT-IL-17RB403-416 (Loop) peptides were examined the tumor-immune modulating capacity by flow cytometry with specific cell surface markers as indicated. […] Data are mean±s.d. *P<0.05, **P<0.01 by two-tailed Student's t-test.
Formalin-fixed paraffin-embedded primary tumor tissue sections were used for IHC. Heat-induced antigen retrieval was performed using 0.1M citrate buffer, pH 6.0 and autoclaved for 20 mins. Endogenous peroxidase was eliminated with 3% H2O2. Slides were stained with an in-house-generated anti-IL-17RB antibody (A81, 1:2000) and anti-P-Y447 (1:500), respectively in PBS/10% FBS overnight at 4° C. After washing, slides were incubated with anti-rabbit/mouse HRP polymer before visualization with liquid diaminobenzidine tetrahydrochloride plus substrate DAB chromogen from Dako REAL EnVision (Carpinteria, CA). All slides were counterstained with hematoxylin.
Tumors were excised, weighed and measured. Approximately half of each dissected tumor was fixed in formalin for histopathologic analysis. The remaining tumor sections were placed in PBS with 1% (v/v) FBS and mechanically minced. […]

“RKKRRQRRRVCDGTCGKSEGSPS (IL-17RB inhibitory peptide, fusion protein) [loop peptide]” was tested, and the “bone marrow-derived dendritic cell activation (CD80, CD86, MHC-II)” value [1] was “does not suppress IL-17E-induced IL-4 and IL-13 mRNA expression in PBMCs or affect”, the “lung metastasis nodule formation” value ([2]; EKP mice euthanized at day 56) was “suppressed” and the “expression of P-Y447 IL-17RB in pancreatic tissues (IHC)” value ([2]; EKP mice, Day 42) was “diminished”. For the same sequence, the “recruitment of MDSC and M2 macrophage” value ([2]; EKP mice) was “reduced”, the “recruitment of MDSC and M2 macrophage” value ([2]; EKP mice, listed as TAT-IL-17RB403-416) was “reduces” and the “lifespan (Kaplan-Meier survival)” value ([2]; EKP mice, second treatment protocol) was “significantly prolonged”.
